In article PMC6073854, “Role of Arginine 117 in Substrate Recognition by Human Cytochrome P450 2J2” (International Journal of Molecular Sciences, 2018):
Residue numbers refer to the chain shown, from its start. Where “and” joins values, the source holds several entries; their conditions need not be identical. Equal values may be shown once.

How the values were obtained:
CYP2J2-R117E = molecular target: T1, CYP2J2-R117E (Homo sapiens, UniProt P51589, R117E); test: biochemical
T1 sequence (P51589 1-502 R117E): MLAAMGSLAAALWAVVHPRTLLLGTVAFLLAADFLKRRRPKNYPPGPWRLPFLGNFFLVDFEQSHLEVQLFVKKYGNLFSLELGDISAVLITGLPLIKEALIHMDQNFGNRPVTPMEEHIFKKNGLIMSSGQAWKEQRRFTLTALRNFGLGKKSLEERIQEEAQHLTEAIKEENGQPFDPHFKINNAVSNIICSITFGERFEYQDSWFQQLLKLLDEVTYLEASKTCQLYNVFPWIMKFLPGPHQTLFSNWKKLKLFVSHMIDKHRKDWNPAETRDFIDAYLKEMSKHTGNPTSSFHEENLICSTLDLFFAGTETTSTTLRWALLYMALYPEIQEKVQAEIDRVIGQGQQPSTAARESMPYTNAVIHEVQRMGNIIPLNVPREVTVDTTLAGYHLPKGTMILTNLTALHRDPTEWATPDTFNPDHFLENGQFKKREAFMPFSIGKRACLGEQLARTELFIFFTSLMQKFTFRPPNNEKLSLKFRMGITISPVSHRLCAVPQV

wild-type CYP2J2 = molecular target: T2, wild-type CYP2J2 (Homo sapiens, UniProt P51589); settings: cited from earlier work
T2 sequence (P51589 1-502): T1 sequence (P51589 1-502 R117E) with E117R

wild type CYP2J2 = tested on: wild type CYP2J2; design: method as in PMID 17705402; settings: docked model, WT; values previously reported ref 50; cited from earlier work
CYP2J2-R117K = molecular target: T3, CYP2J2-R117K (Homo sapiens, UniProt P51589, R117K); test: biochemical
T3 sequence (P51589 1-502 R117K): T1 sequence (P51589 1-502 R117E) with E117K

| IC50 (CYP2J2-R117E) | IC50 (CYP2J2-R117K) [µM] | Compound | IC50 (wild-type CYP2J2) [µM] | Fe-C distance, α carbon of R group (wild type CYP2J2) [Å] | Fe-C distance, β carbon of R group (wild type CYP2J2) [Å] | Fe-C distance, γ carbon of R group (wild type CYP2J2) [Å] |
| --- | --- | --- | --- | --- | --- | --- |
| 1 µM and 0.5 µM | 1.1 ± 0.2 | CCCc1ccc(C(=O)CCCN2CCC(C(O)(c3ccccc3)c3ccccc3)CC2)cc1 [Compound 2] | 0.4 ± 0.1 | 4.9 | 3.8 | 4.6 |
| 2.1 ± 0.4 µM | 8.6 ± 0.2 | CC(C)(C)c1ccc(CCCCN2CCC(C(O)(c3ccccc3)c3ccccc3)CC2)cc1 [Compound 3] | 3.6 ± 0.7 | – | – | – |
| 0.5 µM and 1 µM | ~1 | CC(C)(C)c1ccc(C(=O)CCCN2CCC(C(O)(c3ccccc3)c3ccccc3)CC2)cc1 [Terfenadone 1, Terfenadone] | 0.7 ± 0.1 | – | – | – |

| Compound | IC50 (CYP2J2-R117E) | IC50 (CYP2J2-R117K) [µM] | IC50 (wild-type CYP2J2) [µM] | Fe-C distance, α carbon of R group (wild type CYP2J2) [Å] | Fe-C distance, β carbon of R group (wild type CYP2J2) [Å] | Fe-C distance, γ carbon of R group (wild type CYP2J2) [Å] |
| --- | --- | --- | --- | --- | --- | --- |
| CCCc1ccc(CCCCN2CCC(C(O)(c3ccccc3)c3ccccc3)CC2)cc1 [Compound 4] | 2.9 ± 0.2 µM | 13.2 ± 0.1 | 4.5 ± 0.9 | – | – | – |
